This experiment concerns the target T1, human S1P1 receptor (Homo sapiens, UniProt P21453).
T1 construct: expressed in transfected cells; membranes used
As to the kind of experiment: GTP γ35S binding assay for S1P1 activity. The settings on record: activity potency, S1P1 receptor from GTP γ35S binding; membranes of cells stably expressing the S1P1 receptor. In kind it is biochemical. Here is the method: Compounds were synthesized and tested for S1P1 activity using the GTP γ^35S binding assay. These compounds may be assessed for their ability to activate or block activation of the human S1P1 receptor in cells stably expressing the S1P1 receptor.
GTP γ^35S binding was measured in the medium containing (mM) HEPES 25, pH 7.4, MgCl2 10, NaCl 100, dithiothreitol 0.5, digitonin 0.003%, 0.2 nM GTP γ^35S, and 5 μg membrane protein in a volume of 150 μl. Test compounds were included in the concentration range from 0.08 to 5,000 nM unless indicated otherwise. Membranes were incubated with 100 μM 5′-adenylylimidodiphosphate for 30 min, and subsequently with 10 μM GDP for 10 min on ice. Drug solutions and membrane were mixed, and then reactions were initiated by adding GTP γ^35S and continued for 30 min at 25° C. Reaction mixtures were filtered over Whatman GF/B filters under vacuum, and washed three times with 3 mL of ice-cold buffer (HEPES 25, pH7.4, MgCl2 10 and NaCl 100). Filters were dried and mixed with scintillant, and counted for ^35S activity using a β-counter. Agonist-induced GTP γ^35S binding was obtained by subtracting that in the absence of agonist. Binding data were analyzed using a non-linear regression method. In case of antagonist assay, the reaction mixture contained 10 nM […] in the presence of test antagonist at concentrations ranging from 0.08 to 5000 nM.
Background: GTPγS resists hydrolysis and so accumulates on activated G proteins.

T1 sequence (P21453 whole entry): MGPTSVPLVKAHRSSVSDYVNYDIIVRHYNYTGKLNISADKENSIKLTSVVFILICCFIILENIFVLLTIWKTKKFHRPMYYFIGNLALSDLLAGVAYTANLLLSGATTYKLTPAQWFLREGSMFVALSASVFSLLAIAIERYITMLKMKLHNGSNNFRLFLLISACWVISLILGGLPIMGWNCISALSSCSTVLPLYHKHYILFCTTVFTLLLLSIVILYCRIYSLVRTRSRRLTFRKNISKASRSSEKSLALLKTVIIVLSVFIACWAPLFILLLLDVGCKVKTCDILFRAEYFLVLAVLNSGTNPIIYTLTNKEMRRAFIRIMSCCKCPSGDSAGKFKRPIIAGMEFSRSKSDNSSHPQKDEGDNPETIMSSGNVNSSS

For `CCCCCC(CCCOc1ccc(CNCCCP(=O)(O)O)cc1)Cc1ccc(C)c(C)c1` (centres unmarked) [Compound 1, {3-[(4-{[4-(3,4-Dimethylbenzyl)nonyl]oxy}benzyl)amino]propyl}phosphonic acid], the EC50 (in general, the concentration giving half of the maximal effect) is 5.18 nM.

For the molecule `CCCCC(CCCOc1ccc(CNCCCP(=O)(O)O)cc1)Cc1ccc(C)c(C)c1` (centres unmarked) [Compound 2, {3-[(4-{[4-(3,4-Dimethylbenzyl)octyl]oxy}benzyl)amino]propyl}phosphonic acid], the EC50 turned out to be 12.9 nM.

Take `CCCCC(CCCOc1ccc(CNCCC(=O)O)cc1)Cc1ccc(C)c(C)c1` (centres unmarked) [Compound 3, 3-[(4-{[4-(3,4-Dimethylbenzyl)octyl]oxy}benzyl)amino]propanoic acid]: the midpoint of the response, the EC50, lay at 5 nM. The molecule `CCCC(CCCOc1ccc(CNCCCP(=O)(O)O)cc1)Cc1ccc(C)c(C)c1` (centres unmarked) [Compound 4, {3-[(4-{[4-(3,4-Dimethylbenzyl)heptyl]oxy}benzyl)amino]propyl}phosphonic acid] showed an EC50 of 120 nM. Then `CCCC(CCCOc1ccc(CNCCC(=O)O)cc1)Cc1ccc(C)c(C)c1` (centres unmarked) [Compound 5, 3-[(4-{[4-(3,4-Dimethylbenzyl)heptyl]oxy}benzyl)amino]propanoic acid], with 4.68 nM; and `CCC(CCCOc1ccc(CNCCCP(=O)(O)O)cc1)Cc1ccc(C)c(C)c1` (centres unmarked) [Compound 6, {3-[(4-{[4-(3,4-Dimethylbenzyl)hexyl]oxy}benzyl)amino]propyl}phosphonic acid], with 21.4 nM.

For the molecule `CCC(CCCOc1ccc(CNCCC(=O)O)cc1)Cc1ccc(C)c(C)c1` (centres unmarked) [Compound 7, 3-[(4-{[4-(3,4-Dimethylbenzyl)hexyl]oxy}benzyl)amino]propanoic acid], the response was half-maximal at 11.4 nM (EC50).

`CCCCCC(CCCOc1ccc(CNCCC(=O)O)cc1)Cc1ccc(C)c(C)c1` (centres unmarked) [Compound 10, 3-[(4-{[4-(3,4-Dimethylbenzyl)nonyl]oxy}benzyl)amino]propanoic acid] had a concentration giving a half-maximal response (EC50) of 7.46 nM. With `CCCCC(CCCOc1c(C)cc(CNCCCP(=O)(O)O)cc1C)Cc1ccc(C)c(C)c1` (centres unmarked) [Compound 11, {3-[(4-{[4-(3,4-Dimethylbenzyl)octyl]oxy}-3,5-dimethylbenzyl)amino]propyl}phosphonic acid], the midpoint of the response, the EC50, lay at 18.9 nM. Then `CCCCC(CCCOc1c(C)cc(CNCCC(=O)O)cc1C)Cc1ccc(C)c(C)c1` (centres unmarked) [Compound 12, 3-[(4-{[4-(3,4-dimethylbenzyl)octyl]oxy}-3,5-dimethylbenzyl)amino]propanoic acid], with 9.84 nM.

As for `CCCCC(CCCOc1ccc(CNCCCP(=O)(O)O)cc1C)Cc1ccc(C)c(C)c1` (centres unmarked) [Compound 13, {3-[(4-{[4-(3,4-Dimethylbenzyl)octyl]oxy}-3-methylbenzyl)amino]propyl}phosphonic acid], the EC50 turned out to be 6.54 nM. `CCCCC(CCCOc1ccc(CNCCC(=O)O)cc1C)Cc1ccc(C)c(C)c1` (centres unmarked) [Compound 14, 3-[(4-{[4-(3,4-Dimethylbenzyl)octyl]oxy}-3-methylbenzyl)amino]propanoic acid] registered an EC50 of 6.02 nM. For `CCCCC(CCCOc1ccc(CNCCCP(=O)(O)O)cc1Br)Cc1ccc(C)c(C)c1` (centres unmarked) [Compound 15, {3-[(3-Bromo-4-{[4-(3,4-dimethylbenzyl)octyl]oxy}benzyl)amino]propyl}phosphonic acid], the EC50 was determined as 2.29 nM. The molecule `CCCCC(CCCOc1ccc(CNCCC(=O)O)cc1Br)Cc1ccc(C)c(C)c1` (centres unmarked) [Compound 16, 3-[(3-Bromo-4-{[4-(3,4-dimethylbenzyl)octyl]oxy}benzyl)amino]propanoic acid] came in with an EC50 of 4.19 nM. `CCCCC(CCCOc1ccc(CNCCCP(=O)(O)O)cc1Cl)Cc1ccc(C)c(C)c1` (centres unmarked) [Compound 17, {3-[(3-Chloro-4-{[4-(3,4-dimethylbenzyl)octyl]oxy}benzyl)amino]propyl}phosphonic acid] came in with an EC50 of 1.34 nM. `CCCCC(CCCOc1ccc(CNCCC(=O)O)cc1Cl)Cc1ccc(C)c(C)c1` (centres unmarked) [Compound 18, 3-[(3-Chloro-4-{[4-(3,4-dimethylbenzyl)octyl]oxy}benzyl)amino]propanoic acid]: a half-maximal response (EC50) required 1.25 nM. `CCCCC(CCCOc1c(F)cc(CNCCCP(=O)(O)O)cc1OC)Cc1ccc(C)c(C)c1` (centres unmarked) [Compound 19, {3-[(4-{[4-(3,4-dimethylbenzyl)octyl]oxy}-3-fluoro-5-methoxybenzyl)amino]propyl}phosphonic acid] registered an EC50 of 0.33 nM. As to `CCCCC(CCCOc1c(F)cc(CNCCC(=O)O)cc1OC)Cc1ccc(C)c(C)c1` (centres unmarked) [Compound 20, 3-[(4-{[4-(3,4-Dimethylbenzyl)octyl]oxy}-3-fluoro-5-methoxybenzyl)amino]propanoic acid], a half-maximal response (EC50) required 2.7 nM.

Consider `CCCCC(CCCOc1ccc(CNCCCP(=O)(O)O)cc1F)Cc1ccc(C)c(C)c1` (centres unmarked) [Compound 21, {3-[(4-{[4-(3,4-Dimethylbenzyl)octyl]oxy}-3-fluorobenzyl)amino]propyl}phosphonic acid], for which the EC50 stood at 2.35 nM. Then `CCCCC(CCCOc1ccc(CNCCC(=O)O)cc1F)Cc1ccc(C)c(C)c1` (centres unmarked) [Compound 22, 3-[(4-{[4-(3,4-Dimethylbenzyl)octyl]oxy}-3-fluorobenzyl)amino]propanoic acid], with 15.7 nM. Consider `CCCCCC(CCCOc1c(C)cc(CNCCCP(=O)(O)O)cc1C)Cc1ccc(C)c(C)c1` (centres unmarked) [Compound 23, {3-[(4-{[4-(3,4-Dimethylbenzyl)nonyl]oxy}-3,5-dimethylbenzyl)amino]propyl}phosphonic acid], for which the EC50 turned out to be 11.9 nM. Consider `CCCCCC(CCCOc1ccc(CNCCCP(=O)(O)O)cc1Cl)Cc1ccc(C)c(C)c1` (centres unmarked) [Compound 25, {3-[(3-Chloro-4-{[4-(3,4-dimethylbenzyl)nonyl]oxy}benzyl)amino]propyl}phosphonic acid], for which the midpoint of the response, the EC50, lay at 4.83 nM. `CCCCCC(CCCOc1ccc(CNCCC(=O)O)cc1Cl)Cc1ccc(C)c(C)c1` (centres unmarked) [Compound 26, 3-[(3-Chloro-4-{[4-(3,4-dimethylbenzyl)nonyl]oxy}benzyl)amino]propanoic acid] came in with an EC50 of 11.8 nM. Take `CCCC(CCCOc1ccc(CNCCCP(=O)(O)O)cc1Cl)Cc1ccc(C)c(C)c1` (centres unmarked) [Compound 27, {3-[(3-chloro-4-{[4-(3,4-dimethylbenzyl)heptyl]oxy}benzyl)amino]propyl}phosphonic acid]: the EC50 came to 10.9 nM. Then `CCCC(CCCOc1ccc(CNCCC(=O)O)cc1Cl)Cc1ccc(C)c(C)c1` (centres unmarked) [Compound 28, 3-[(3-Chloro-4-{[4-(3,4-dimethylbenzyl)heptyl]oxy}benzyl)amino]propanoic acid], with 54 nM; and `CCCC(CCCOc1c(C)cc(CNCCCP(=O)(O)O)cc1C)Cc1ccc(C)c(C)c1` (centres unmarked) [Compound 29, {3-[(4-{[4-(3,4-Dimethylbenzyl)heptyl]oxy}-3,5-dimethylbenzyl)amino]propyl}phosphonic acid], with 328 nM. Turning to `CCCC(CCCOc1c(C)cc(CNCCC(=O)O)cc1C)Cc1ccc(C)c(C)c1` (centres unmarked) [Compound 30, 3-[(4-{[4-(3,4-Dimethylbenzyl)heptyl]oxy}-3,5-dimethylbenzyl)amino]propanoic acid], the midpoint of the response, the EC50, lay at 27.1 nM. Molecule `CCCC(CCCOc1ccc(CNCCCP(=O)(O)O)cc1C)Cc1ccc(C)c(C)c1` (centres unmarked) [Compound 31, {3-[(4-{[4-(3,4-Dimethylbenzyl)heptyl]oxy}-3-methylbenzyl)amino]propyl}phosphonic acid] had a 50% effective concentration (EC50) of 7.89 nM. As to `CCCC(CCCOc1ccc(CNCCC(=O)O)cc1C)Cc1ccc(C)c(C)c1` (centres unmarked) [Compound 32, 3-[(4-{[4-(3,4-Dimethylbenzyl)heptyl]oxy}-3-methylbenzyl)amino]propanoic acid], a half-maximal response (EC50) required 35.2 nM.

The values are drawn from patent publication US20150045328A1, “DISUBSTITUTED ARYL OXY DERIVATIVES AS SPHINGOSINE-1 PHOSPHATE RECEPTORS MODULATORS” (Allergan, Inc., priority 2013, published 2015).
